Assay results taken from PubChem BioAssay (NCI).
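96-well plates; 48 h exposure; 5 concentrations. Endpoints by linear interpolation between flanking doses. Not reached: highest tested concentration assigned. GI50 = concentration required for 50% inhibition of growth. At the TGI there is no net growth.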

Tests used:
Assay in all cases: NCI tumour cell line growth inhibition, 48 h
SF-539 CNS = tested on: SF-539 CNS
DU-145 prostate = tested on: DU-145 prostate
KM12 colon = tested on: KM12 colon
NCI-H23 lung = tested on: NCI-H23 lung
TK-10 renal = tested on: TK-10 renal
HCT-116 colon = tested on: HCT-116 colon
SNB-19 CNS = tested on: SNB-19 CNS
MOLT-4 leukemia = tested on: MOLT-4 leukemia
OVCAR-3 ovarian = tested on: OVCAR-3 ovarian
NCI-H522 lung = tested on: NCI-H522 lung
A549 NSCLC = tested on: A549 NSCLC
CCRF-CEM leukemia = tested on: CCRF-CEM leukemia
HT29 colon = tested on: HT29 colon
HS 578T breast = tested on: HS 578T breast
LOX IMVI melanoma = tested on: LOX IMVI melanoma
SN12C renal = tested on: SN12C renal
SF-268 CNS = tested on: SF-268 CNS
RXF 393 renal = tested on: RXF 393 renal
NCI-H226 lung = tested on: NCI-H226 lung
SK-MEL-5 melanoma = tested on: SK-MEL-5 melanoma
MDA-MB-435 = tested on: MDA-MB-435
HL-60(TB) leukemia = tested on: HL-60(TB) leukemia
SK-OV-3 ovarian = tested on: SK-OV-3 ovarian
U251 CNS = tested on: U251 CNS
BT-549 breast = tested on: BT-549 breast
COLO 205 colon = tested on: COLO 205 colon
K-562 leukemia = tested on: K-562 leukemia
UO-31 renal = tested on: UO-31 renal
RPMI-8226 leukemia = tested on: RPMI-8226 leukemia
PC-3 prostate = tested on: PC-3 prostate
MCF7 breast = tested on: MCF7 breast
OVCAR-8 ovarian = tested on: OVCAR-8 ovarian
EKVX NSCLC = tested on: EKVX NSCLC
NCI/ADR-RES ovarian = tested on: NCI/ADR-RES ovarian
MDA-MB-231 breast = tested on: MDA-MB-231 breast
T-47D breast = tested on: T-47D breast
A498 renal = tested on: A498 renal
SF-295 CNS = tested on: SF-295 CNS
SNB-75 CNS = tested on: SNB-75 CNS
MALME-3M melanoma = tested on: MALME-3M melanoma
UACC-62 melanoma = tested on: UACC-62 melanoma
HCC-2998 colon = tested on: HCC-2998 colon
SK-MEL-28 melanoma = tested on: SK-MEL-28 melanoma
UACC-257 melanoma = tested on: UACC-257 melanoma
CAKI-1 renal = tested on: CAKI-1 renal
SK-MEL-2 melanoma = tested on: SK-MEL-2 melanoma
786-0 renal = tested on: 786-0 renal
ACHN renal = tested on: ACHN renal
M14 melanoma = tested on: M14 melanoma
OVCAR-4 ovarian = tested on: OVCAR-4 ovarian
HOP-62 NSCLC = tested on: HOP-62 NSCLC
NCI-H460 lung = tested on: NCI-H460 lung
IGROV1 ovarian = tested on: IGROV1 ovarian
HCT-15 colon = tested on: HCT-15 colon
OVCAR-5 ovarian = tested on: OVCAR-5 ovarian
SW-620 colon = tested on: SW-620 colon

Clc1ccc2c(NCCN3CCN(c4ccnc(N5CCCC5)n4)CC3)ccnc2c1
GI50 (SF-539 CNS): 1.73 µM
TGI (SF-539 CNS): 3.67 µM
GI50 (DU-145 prostate): 5.71 µM
TGI (DU-145 prostate): 20.3 µM
GI50 (KM12 colon): 4.02 µM
TGI (KM12 colon): 17.4 µM
GI50 (NCI-H23 lung): 6.88 µM
TGI (NCI-H23 lung): 22.7 µM
GI50 (TK-10 renal): 3.9 µM
TGI (TK-10 renal): 21.3 µM
GI50 (HCT-116 colon): 2.51 µM
TGI (HCT-116 colon): 10.4 µM
GI50 (SNB-19 CNS): 7.06 µM
TGI (SNB-19 CNS): 28.7 µM
GI50 (MOLT-4 leukemia): 3.58 µM
TGI (MOLT-4 leukemia): 38.2 µM
GI50 (OVCAR-3 ovarian): 5.3 µM
TGI (OVCAR-3 ovarian): 21.2 µM
GI50 (NCI-H522 lung): 3.27 µM
TGI (NCI-H522 lung): 11.1 µM
GI50 (A549 NSCLC): 4.23 µM
TGI (A549 NSCLC): 16.8 µM
GI50 (CCRF-CEM leukemia): 3.65 µM
TGI (CCRF-CEM leukemia): 32.3 µM
GI50 (HT29 colon): 1.34 µM
TGI (HT29 colon): 12.2 µM
GI50 (HS 578T breast): 3.54 µM
TGI (HS 578T breast): 19.8 µM
GI50 (LOX IMVI melanoma): 1.72 µM
TGI (LOX IMVI melanoma): 3.55 µM
GI50 (SN12C renal): 4.86 µM
TGI (SN12C renal): 19.1 µM
GI50 (SF-268 CNS): 2.73 µM
TGI (SF-268 CNS): 11.5 µM
GI50 (RXF 393 renal): 1.42 µM
TGI (RXF 393 renal): 3.93 µM
GI50 (NCI-H226 lung): 21.8 µM
TGI (NCI-H226 lung): 41 µM
GI50 (SK-MEL-5 melanoma): 1.79 µM
TGI (SK-MEL-5 melanoma): 3.19 µM
GI50 (MDA-MB-435): 1.96 µM
TGI (MDA-MB-435): 4.54 µM
GI50 (HL-60(TB) leukemia): 2.37 µM
TGI (HL-60(TB) leukemia): 6.25 µM
GI50 (SK-OV-3 ovarian): 11.8 µM
TGI (SK-OV-3 ovarian): 34.2 µM
GI50 (U251 CNS): 3.09 µM
TGI (U251 CNS): 10.1 µM
GI50 (BT-549 breast): 5.63 µM
TGI (BT-549 breast): 19.4 µM
GI50 (COLO 205 colon): 1.63 µM
TGI (COLO 205 colon): 3.59 µM
GI50 (K-562 leukemia): 1.47 µM
TGI (K-562 leukemia): 9.76 µM
GI50 (UO-31 renal): 1.82 µM
TGI (UO-31 renal): 4.47 µM
GI50 (RPMI-8226 leukemia): 2.48 µM
TGI (RPMI-8226 leukemia): 7.08 µM
GI50 (PC-3 prostate): 5.97 µM
TGI (PC-3 prostate): 20.8 µM
GI50 (MCF7 breast): 1.96 µM
TGI (MCF7 breast): 8.04 µM
GI50 (OVCAR-8 ovarian): 4.39 µM
TGI (OVCAR-8 ovarian): 18.5 µM
GI50 (EKVX NSCLC): 10.2 µM
TGI (EKVX NSCLC): 24.4 µM
GI50 (NCI/ADR-RES ovarian): 4.12 µM
TGI (NCI/ADR-RES ovarian): 18.1 µM
GI50 (MDA-MB-231 breast): 2.06 µM
TGI (MDA-MB-231 breast): 5.89 µM
GI50 (T-47D breast): 2.01 µM
TGI (T-47D breast): 5.59 µM
GI50 (A498 renal): 2.39 µM
TGI (A498 renal): 8.51 µM
GI50 (SF-295 CNS): 2.37 µM
TGI (SF-295 CNS): 5.44 µM
GI50 (SNB-75 CNS): 1.76 µM
TGI (SNB-75 CNS): 7.62 µM
GI50 (MALME-3M melanoma): 1.91 µM
TGI (MALME-3M melanoma): 3.74 µM
GI50 (UACC-62 melanoma): 2.13 µM
TGI (UACC-62 melanoma): 4.51 µM
GI50 (HCC-2998 colon): 1.94 µM
TGI (HCC-2998 colon): 4.08 µM
GI50 (SK-MEL-28 melanoma): 1.77 µM
TGI (SK-MEL-28 melanoma): 3.66 µM
GI50 (UACC-257 melanoma): 2.29 µM
TGI (UACC-257 melanoma): 4.35 µM
GI50 (CAKI-1 renal): 2.69 µM
TGI (CAKI-1 renal): 10.3 µM
GI50 (SK-MEL-2 melanoma): 2.61 µM
TGI (SK-MEL-2 melanoma): 6.77 µM
GI50 (786-0 renal): 3.32 µM
TGI (786-0 renal): 11.1 µM
GI50 (ACHN renal): 2.68 µM
TGI (ACHN renal): 8.01 µM
GI50 (M14 melanoma): 1.91 µM
TGI (M14 melanoma): 3.61 µM
GI50 (OVCAR-4 ovarian): 3.87 µM
TGI (OVCAR-4 ovarian): 28.2 µM
GI50 (HOP-62 NSCLC): 3.34 µM
TGI (HOP-62 NSCLC): 16.2 µM
GI50 (NCI-H460 lung): 3.25 µM
TGI (NCI-H460 lung): 10.1 µM
GI50 (IGROV1 ovarian): 4.48 µM
TGI (IGROV1 ovarian): 23.7 µM
GI50 (HCT-15 colon): 2.1 µM
TGI (HCT-15 colon): 7.57 µM
GI50 (OVCAR-5 ovarian): 5.1 µM
TGI (OVCAR-5 ovarian): 21.4 µM
GI50 (SW-620 colon): 2.05 µM
TGI (SW-620 colon): 4.31 µM
